Test results published in ChEMBL document CHEMBL5032522, “N-2-(phenylamino) benzamide derivatives as novel anti-glioblastoma agents: Synthesis and biological evaluation” (Eur J Med Chem, 2021).
Active and inactive are the calls of the source. No cut-off for these calls is given here.

Tests used:
[1] = tested on: U-87 MG; assay: Antiproliferative activity against human U-87 MG cells assessed as cell survival at <= 1.1 uM measured after 24 hrs by CCK-8 assay; type: functional, U-87MG ATCC; conditions: dose microM <=1.1
[2] = tested on: U-87 MG; assay: Inhibition of cell invasion in human U-87 MG cells incubated for 24 hrs by crystal violet staining based light microscopic analysis; type: functional; conditions: U-87MG ATCC
[3] = tested on: U-87 MG; assay: Induction of morphological changes in human U-87 MG cells assessed as appearance of spindle cell shape at 3.3 uM incubated for 72 hrs by Giemsa staining based light microscopic method; type: functional; conditions: U-87MG ATCC
[4] = tested on: U-251; assay: Induction of morphological changes in human U-251 cells assessed as appearance of spindle cell shape at 3.3 uM incubated for 72 hrs by Giemsa staining based light microscopic method; type: functional
[5] = tested on: U-87 MG; assay: Induction of morphological changes in human U-87 MG cells assessed as appearance of rounded and shortened cells at 3.3 uM incubated for 72 hrs by Giemsa staining based light microscopic method; type: functional, cell-based; conditions: U-87MG ATCC
[6] = tested on: U-251; assay: Induction of morphological changes in human U-251 cells assessed as appearance of rounded and shortened cells at 3.3 uM incubated for 72 hrs by Giemsa staining based light microscopic method; type: functional, cell-based
[7] = Acute toxicity in Kunming mouse assessed as death at 750 mg/kg, ip administered as single dose observed every day for 14 days; type: organism-based; conditions: in vivo, 336 h, time 14 day
[8] = tested on: U-251; assay: Inhibition of colony formation in human U-251 cells measured after 8 days by crystal violet staining based assay; type: functional, cell-based; conditions: time 8.0 day
[9] = tested on: U-251; assay: Induction of cell cycle arrest in human U-251 cells assessed as reduction in G0/G1 phase accumulation at 10 uM incubated for 72 hrs by propidium iodide/RNase A staining based flow cytometry (reference value: 79.12%); type: functional; parameters: scale not given: the % may be the effect or the level left
[10] = Drug concentration in Sprague-Dawley rat brain at 100 mg/kg, ip measured 6 hrs post administration by LC-MS analysis; type: ADME, organism-based; conditions: read-out: Ct
[11] = tested on: U-251; assay: Induction of cell cycle arrest in human U-251 cells assessed as increase in G2 phase accumulation at 10 uM incubated for 72 hrs by propidium iodide/RNase A staining based flow cytometry (reference value: 20.88%); type: functional
[12] = Toxicity in Sprague-Dawley rat inoculated with C6 cells assessed as reduction in body weight at 100 mg/kg, ip bid administered for 14 days; type: organism-based; conditions: in vivo, 336 h, time 14 day
[13] = tested on: U-251; assay: Induction of cell cycle arrest in human U-251 cells assessed as accumulation of cells at G2/M phase incubated for 72 hrs by propidium iodide/RNase A staining based flow cytometry analysis; type: functional
[14] = tested on: U-87 MG; assay: Induction of cell cycle arrest in human U-87 MG cells assessed as accumulation of cells at G2/M phase incubated for 72 hrs by propidium iodide/RNase A staining based flow cytometry analysis; type: functional; conditions: U-87MG ATCC
[15] = Half life in Sprague-Dawley rat at 100 mg/kg, ip measured up to 24 hrs by LC-MS analysis; type: ADME, organism-based; conditions: in vivo
[16] = Tmax in Sprague-Dawley rat at 100 mg/kg, ip measured up to 24 hrs by LC-MS analysis; type: ADME, organism-based; conditions: in vivo
[17] = Acute toxicity in Kunming mouse assessed as death at 1000 mg/kg, ip administered as single dose observed every day for 14 days; type: organism-based; conditions: in vivo, 336 h, time 14 day
[18] = tested on: C6; assay: Antitumor activity against rat C6 cells inoculated orthotopic Sprague-Dawley rat model assessed as tumor growth inhibition at 100 mg/kg, ip bid administered for 14 days by MRI scanner relative to control; type: functional; conditions: 336 h, time 14 day, read-out: TGI
[19] = tested on: U-87 MG; assay: Inhibition of colony formation in human U-87 MG cells measured after 8 days by crystal violet staining based assay; type: functional, cell-based; conditions: U-87MG ATCC, time 8.0 day
[20] = tested on: U-87 MG; assay: Induction of morphological changes in human U-87 MG cells assessed as membrane blebbing at 3.3 uM incubated for 72 hrs by Giemsa staining based light microscopic method; type: functional, cell-based; conditions: U-87MG ATCC
[21] = tested on: U-251; assay: Induction of morphological changes in human U-251 cells assessed as appearance of shrunken cell bodies at 3.3 uM incubated for 72 hrs by Giemsa staining based light microscopic method; type: functional
[22] = tested on: U-251; assay: Inhibition of cell invasion in human U-251 cells incubated for 24 hrs by crystal violet staining based light microscopic analysis; type: functional
[23] = biological target: T1, Prostaglandin G/H synthase 2 (Homo sapiens) (UniProt P35354); assay: Inhibition of COX-2 in human U-87 MG cells assessed as inhibition of PGE2 production measured after 72 hrs; type: cell-based
T1 sequence (whole entry): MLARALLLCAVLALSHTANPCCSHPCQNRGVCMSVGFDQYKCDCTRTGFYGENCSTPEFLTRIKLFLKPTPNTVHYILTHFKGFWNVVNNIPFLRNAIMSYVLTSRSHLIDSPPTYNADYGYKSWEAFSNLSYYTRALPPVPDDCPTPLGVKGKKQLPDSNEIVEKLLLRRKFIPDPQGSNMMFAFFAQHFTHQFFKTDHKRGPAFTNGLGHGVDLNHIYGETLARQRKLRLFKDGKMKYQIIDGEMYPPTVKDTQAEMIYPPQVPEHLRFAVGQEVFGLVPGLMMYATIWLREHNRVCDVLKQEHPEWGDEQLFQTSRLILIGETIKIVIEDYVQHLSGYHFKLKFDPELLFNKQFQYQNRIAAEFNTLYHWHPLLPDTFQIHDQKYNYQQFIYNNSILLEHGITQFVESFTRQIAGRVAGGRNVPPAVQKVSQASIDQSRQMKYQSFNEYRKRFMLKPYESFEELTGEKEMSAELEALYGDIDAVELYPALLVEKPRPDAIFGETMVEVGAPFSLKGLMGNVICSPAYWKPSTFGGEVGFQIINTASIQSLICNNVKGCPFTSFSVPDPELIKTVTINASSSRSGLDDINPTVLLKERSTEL

[24] = tested on: U-87 MG; assay: Induction of morphological changes in human U-87 MG cells assessed as appearance of shrunken cell bodies at 3.3 uM incubated for 72 hrs by Giemsa staining based light microscopic method; type: functional; conditions: U-87MG ATCC
[25] = tested on: U-87 MG; assay: Induction of cell cycle arrest in human U-87 MG cells assessed as increase in G2 phase accumulation at 10 uM incubated for 72 hrs by propidium iodide/RNase A staining based flow cytometry; type: functional; conditions: U-87MG ATCC
[26] = tested on: U-87 MG; assay: Antiproliferative activity against human U-87 MG cells assessed as inhibition of cell growth measured after 72 hrs by CCK-8 assay; type: functional, cell-based, U-87MG ATCC
[27] = AUC (0 to t) in Sprague-Dawley rat at 100 mg/kg, ip measured up to 24 hrs by LC-MS analysis; type: ADME, organism-based; parameters: route intraperitoneal, dose 100 mg/kg, time <=24; conditions: in vivo
[28] = Cmax in Sprague-Dawley rat at 100 mg/kg, ip measured up to 24 hrs by LC-MS analysis; type: ADME, organism-based; parameters: route intraperitoneal, dose 100 mg/kg, time <=24; conditions: in vivo
[29] = Acute toxicity in ip dosed Kunming mouse assessed as lethal dose measured after 14 days; type: organism-based; conditions: in vivo, time 14 day
[30] = Acute toxicity in Kunming mouse assessed as death at 500 mg/kg, ip administered as single dose observed every day for 14 days; type: organism-based; conditions: in vivo, 336 h, time 14 day
[31] = tested on: U-251; assay: Antiproliferative activity against human U-251 cells assessed as inhibition of cell growth measured up to 72 hrs by CCK-8 assay; type: functional, cell-based; conditions: time hrs <=72
[32] = Drug concentration in Sprague-Dawley rat plasma at 100 mg/kg, ip measured 6 hrs post administration by LC-MS analysis; type: ADME, organism-based
[33] = tested on: C6; assay: Antiproliferative activity against rat C6 cells assessed as inhibition of cell growth measured after 72 hrs by CCK-8 assay; type: functional, cell-based; conditions: C6, 72 h

SMILES: Cc1c(Cl)cccc1Nc1ccccc1C(=O)Nc1ccc2c(c1)OCO2
- Survival [1]: >80%
- inhibition [2]: Dose-Dependent Effect
- Activity [3]: Active
- Activity [4]: Active
- Activity [5]: Active
- Activity [6]: Active
- Activity [7]: Non-Toxic
- inhibition [8]: Dose-Dependent Effect
- Activity [9]: 25.36%
- concentration at 6 h [10]: 1.41 µg/mL
- Activity [11]: 74.64%
- Activity [12]: Non-Toxic
- Activity [13]: Dose-Dependent Effect
- Activity [14]: Dose-Dependent Effect
- half-life [15]: 8.36 h
- Tmax [16]: 3.33 h
- Activity [17]: Toxic
- inhibition in vivo at 100 mg/kg [18]: 56.4%
- inhibition [19]: Dose-Dependent Effect
- Activity [20]: Active
- Activity [21]: Active
- inhibition [22]: Dose-Dependent Effect
- inhibition [23]: Active
- Activity [24]: Active
- Activity [25]: Active
- IC50 [26]: 6.46 µM
- AUC(0-t) at 24 h [27]: 46.2 µg·h/mL
- Cmax [28]: 8.87 µg/mL
- LD50 at 336 h [29]: 750 mg/kg
- Activity [30]: Non-Toxic
- Activity [31]: Dose-Dependent Effect
- concentration at 6 h [32]: 4.99 µg/mL
- IC50 [33]: 16.9 µM

SMILES: COc1ccc(NC(=O)c2ccccc2Nc2cccc(Cl)c2C)cc1
- Survival [1]: >80%
- inhibition [2]: Dose-Dependent Effect
- Activity [3]: Active
- Activity [4]: Active
- Activity [5]: Active
- Activity [6]: Active
- Activity [7]: Non-Toxic
- inhibition [8]: Dose-Dependent Effect
- Activity [9]: 26.28%
- concentration at 6 h [10]: 3.38 µg/mL
- Activity [11]: 73.72%
- Activity [12]: Non-Toxic
- Activity [13]: Dose-Dependent Effect
- Activity [14]: Dose-Dependent Effect
- half-life [15]: 6.7 h
- Tmax [16]: 3.33 h
- Activity [17]: Toxic
- inhibition in vivo at 100 mg/kg [18]: 66.7%
- inhibition [19]: Dose-Dependent Effect
- Activity [20]: Active
- Activity [21]: Active
- inhibition [22]: Dose-Dependent Effect
- inhibition [23]: Active
- Activity [24]: Active
- Activity [25]: Active
- IC50 [26]: 4.77 µM
- AUC(0-t) at 24 h [27]: 78.4 µg·h/mL
- Cmax [28]: 8.37 µg/mL
- LD50 at 336 h [29]: 300 mg/kg
- Activity [30]: Toxic
- Activity [31]: Dose-Dependent Effect
- concentration at 6 h [32]: 5.79 µg/mL
- IC50 [33]: 10.1 µM
